According to US20260345598A1 (INTRA-CELLULAR THERAPIES, INC., priority 2023, published 2026):

Columns and labels:
[1] = system: PFC mTORC1-related signaling pathways; assay: PFC mTORC1-related signaling and neurotrophic factor genes after acute administration; assay type: in vivo
Text: As a result, glutamate release is increased which enhances AMPA mediated currents, BDNF release, and mTORC1 activation. Increased synaptogenesis has been associated with enhanced mTORC1 signaling in the PFC.

5-HT2A receptor [2] = conditions: cited from earlier work
NMDA and AMPA receptor = conditions: rat mPFC slices; cited from earlier work
[3] = system: NMDA/AMPA receptors and downstream BDNF and mTOR signaling; conditions: compared with ketamine; cited from earlier work
[4] = system: glutamatergic NMDA NR2B (GluN2B) receptors; conditions: mesolimbic; cited from earlier work
D2 receptor = conditions: presynaptic D2 receptor partial agonism and postsynaptic D2 receptor antagonism; cited from earlier work
[5] = system: patients with acute exacerbated schizophrenia; assay: Clinical studies in patients with acute exacerbated schizophrenia, emotional experience symptoms; assay type: in vivo, human; conditions: 60 mg P.O. once daily, up to 28 days, two clinical studies, vs placebo
Text: Social avoidance can be a critical and debilitating symptom in patients suffering from anxiety disorders, especially social anxiety disorder, as well as in patients suffering from traumatic anxiety disorders. Social avoidance is often one of the key determinants of whether a person with a severe anxiety disorder is capable of maintaining familial relationships or employment relationships. […] Negative symptoms of schizophrenia can be divided into two categories: emotional experience (e.g., emotional withdrawal, passive social withdrawal, active social avoidance) and emotional expression (e.g., blunted effect, poor rapport, lack of spontaneity, and motor retardation). […] These are the symptoms that are most highly correlated with interpersonal functioning.

5-HT2A receptor [6] = conditions: read-out: 5-HT2A receptor antagonism Ki; cited from earlier work
[7] = in vivo; cited from earlier work
right lateral PFC = conditions: patients with MDD, after ketamine treatment; cited from earlier work
5-HT2A receptor [8] = conditions: pre-treatment; cited from earlier work
[9] = system: dendritic spines in cells of the frontal cortex; conditions: cited from earlier work
serotonin receptor = conditions: pre-treatment, dose blocking about 30% of 5-HT2A receptors; cited from earlier work
[10] = system: medial prefrontal cortex neurons; conditions: mouse, in vivo; cited from earlier work

For CN1CCN2c3c(cccc31)[C@@H]1CN(CCCC(=O)c3ccc(F)cc3)CC[C@@H]12 [Lumateperone, 4-((6bR,10aS)-3-methyl-2,3,6b,9,10,10a-hexahydro-1H-pyrido[3′,4′: 4,5]pyrrolo[1,2,3-de]quinoxalin-8 (7H)-yl)-1-(4-fluorophenyl)-1-butanone], the “PFC mTORC1-related signaling and neurotrophic factor genes” value [1] is listed as “stimulates PFC mTORC1-related signaling pathways, as well as some important genes coding for neurotrophic factors, such as BDNF and VEGF”, the “5-HT2A receptor functional activity” value (5-HT2A receptor [2]) is listed as “strong antagonist of the 5-HT2A receptor” and the “serotonin receptor agonist activity” value (5-HT2A receptor [2]) is listed as “does not have serotonin receptor agonist activity”. For the same molecule, the “glutamatergic neurotransmission, NMDA and AMPA receptor conductance” value (NMDA and AMPA receptor) was “enhance glutamatergic neurotransmission by effects on both NMDA and AMPA receptor conductance”, the “activity on NMDA/AMPA receptors and downstream BDNF and mTOR signaling” value [3] was “very similar activity on NMDA/AMPA receptors and downstream BDNF and mTOR signaling as ketamine” and the “phosphorylation of NMDA NR2B (GluN2B) receptors” value [4] was “stimulates phosphorylation of glutamatergic NMDA NR2B (GluN2B) receptors in a mesolimbic specific manner”. The Ki (D2 receptor) was 32 nM, the “symptoms of emotional experience” value [5] was “significant and unexpected improvement in symptoms of emotional experience compared to placebo” and the Ki (5-HT2A receptor [6]) was 0.5 nM.

For CN(C)CCc1c[nH]c2cccc(O)c12 [Psilocin], the “5-HT2A receptor functional activity” value (5-HT2A receptor [2]) is listed as “strong agonist of the 5-HT2A receptor” and the side effects [7] is listed as “can cause nausea and panic attacks”.

For CNC1(c2ccccc2Cl)CCCCC1=O (centres unmarked) [ketamine], the “functional connectivity in the right lateral PFC” value (right lateral PFC) is given as “improved functional connectivity in the right lateral PFC”.

In the case of O=C(c1ccc(F)cc1)C1CCN(CCn2c(=O)[nH]c3ccccc3c2=O)CC1 [ketanserin], the 5-HT2A receptors blocked (5-HT2A receptor [8]) is given as “about 30%”, the “effect on psilocybin-induced growth of dendritic spines” value ([9]; pre-treatment with 5-HT2A receptor antagonist) is given as “did not eliminate the psilocybin-induced growth of dendritic spines” and the “psilocybin-induced head twitch response” value (serotonin receptor) is given as “sufficient to block the psilocybin-induced head twitch response”.

For CN(C)CCc1c[nH]c2cccc(OP(=O)(O)O)c12 [psilocybin], the “persistence of changes in dendritic spine density” value ([9]; following the single dose) is given as “at least a month”, the “dendritic spine formation/elimination rate” value ([9]; male and female mice) is given as “increased formation rate, rather than reduced elimination rate” and the “dendritic spine density and spine head width” value ([9]; single dose, within one day) is given as “measurable increase in dendritic spine density, as well as increased spine head width, within one day”. The “5-HT2A receptor functional activity” value (5-HT2A receptor [2]) was “strong agonist of the 5-HT2A receptor” and the “excitatory neurotransmission in medial prefrontal cortex (mEPSCs)” value [10] was “increased excitatory neurotransmission in the medial prefrontal cortex”.
